This is an account of results in US8895571B2, “Isoindolinone and pyrrolopyridinone derivatives as Akt inhibitors” (Incyte Corporation, priority 2011, dated 2014).

One test concerns the target T1, Full length Akt1 (Homo sapiens, UniProt P31749).
T1 construct: Full length Akt1 (cat #P2999); purchased PerkinElmer P2999
Kind of test: In vitro Akt kinase enzymatic assay (HTRF), Akt1. The format is biochemical. To be noted: 0.4 nM Akt1, substrate solution with 5 mM ATP, 25° C. 1 hr. The procedure, abridged: (§1)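 Full-length enzyme (0.4 nM Akt1 or 0.6 nM Akt2/Akt3 in the enzyme solution) was combined with a substrate solution of 0.1 μM ULight-Crosstide plus 5 mM ATP in pH 7.8 HEPES/MgCl2/DTT/Tween20 buffer and reacted 1 hr at 25° C. The EDTA stop contained Eu anti-phospho-Crosstide; IC50 was fitted from 11-point HTRF inhibition curves.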
For orientation: In TR-FRET formats the signal depends on donor and acceptor labels being close together.

The target in a further test is T2, Full length Akt2 (Homo sapiens, UniProt P31751).
T2 construct: Full length Akt1 (cat #P2999), Akt2 (cat #PV3184); purchased PerkinElmer PV3184
T2 sequence (P31751 whole entry): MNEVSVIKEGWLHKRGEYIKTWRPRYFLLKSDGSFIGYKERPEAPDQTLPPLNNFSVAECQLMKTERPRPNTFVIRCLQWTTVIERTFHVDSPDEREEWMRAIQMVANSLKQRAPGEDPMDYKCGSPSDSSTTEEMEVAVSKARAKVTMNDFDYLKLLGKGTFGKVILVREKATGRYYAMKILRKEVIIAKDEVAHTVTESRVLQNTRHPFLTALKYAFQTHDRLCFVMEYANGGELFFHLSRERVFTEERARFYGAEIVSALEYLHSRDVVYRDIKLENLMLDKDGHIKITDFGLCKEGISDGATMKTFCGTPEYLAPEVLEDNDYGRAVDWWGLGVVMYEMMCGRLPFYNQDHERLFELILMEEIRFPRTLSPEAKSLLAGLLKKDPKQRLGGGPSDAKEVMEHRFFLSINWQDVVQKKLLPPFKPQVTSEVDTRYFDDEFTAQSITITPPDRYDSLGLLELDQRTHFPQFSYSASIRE
Kind of test: In vitro Akt kinase enzymatic assay (HTRF), Akt2. To be noted: 0.6 nM Akt2, substrate solution with 5 mM ATP, 25° C. 1 hr. The format is biochemical. A digest of the protocol:
as §1

Another test concerns the target T3, Full length Akt3 (Homo sapiens, UniProt Q9Y243).
T3 construct: Full length Akt1 (cat #P2999), Akt2 (cat #PV3184), Akt3 (cat #PV3185); purchased PerkinElmer PV3185
Description: In vitro Akt kinase enzymatic assay (HTRF), Akt3. To be noted: 0.6 nM Akt3, substrate solution with 5 mM ATP, 25° C. 1 hr. The format is biochemical. The procedure, abridged:
as §1

Another test addresses T4, Full length PKA (Homo sapiens, UniProt P17612).
T4 construct: Full length PKA (cat #P2912); purchased Invitrogen P2912
Kind of test: PKA in vitro enzymatic assay (HTRF). The format is biochemical. To be noted: 0.035 nM enzyme solution, substrate solution with 5 mM ATP, 25° C. 1 hr. The procedure, abridged: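 IC50 came from curve fitting of percent inhibition across an 11-point, 3-fold compound series, with HTRF read after EDTA quench and Tb-labelled p-S133 antibody detection. Enzyme (0.035 nM solution) and substrate (0.1 μM fluorescein-CREBtide solution containing 5 mM ATP) reacted for 1 h at 25°C. The buffer was HEPES 50 mM pH 7.8 with 10 mM MgCl2, 5 mM DTT and 0.005% Tween20.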

The subject of test [1] is LNCaP cells (human prostate tumor cell line). Description: Akt LNCaP proliferation assay (MTS). The format is cell-based. To be noted: 48 hours. A digest of the protocol:
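Cells plated at 10,000/well in RPMI with 2% FBS overnight at 37° C., 5% CO2, then exposed to compound at 1000 nM to 0.5 nM (3-fold dilutions) for 48 hours. Viable cells measured by MTS colorimetric read-out after 2 hours; IC50 taken as concentration giving 50% inhibition of total proliferation.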

The mark [2] stands for this setting: 2% fetal bovine serum, class symbols.
[3] abbreviates: given as a bound, final concentrations 1000 nM to 0.5 nM.

T1 sequence (P31749 whole entry): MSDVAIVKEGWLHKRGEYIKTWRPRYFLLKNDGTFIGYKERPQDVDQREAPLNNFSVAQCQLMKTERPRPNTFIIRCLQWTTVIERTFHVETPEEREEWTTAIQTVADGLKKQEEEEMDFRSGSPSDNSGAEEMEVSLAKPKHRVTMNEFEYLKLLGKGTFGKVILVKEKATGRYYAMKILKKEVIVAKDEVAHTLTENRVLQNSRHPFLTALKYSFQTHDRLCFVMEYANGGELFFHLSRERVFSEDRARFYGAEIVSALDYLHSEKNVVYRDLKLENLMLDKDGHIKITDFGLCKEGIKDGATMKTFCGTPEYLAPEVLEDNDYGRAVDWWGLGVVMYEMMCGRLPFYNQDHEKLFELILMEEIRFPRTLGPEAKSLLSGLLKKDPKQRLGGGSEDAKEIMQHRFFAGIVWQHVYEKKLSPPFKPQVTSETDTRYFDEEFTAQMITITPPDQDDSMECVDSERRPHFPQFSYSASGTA
T3 sequence (Q9Y243 whole entry): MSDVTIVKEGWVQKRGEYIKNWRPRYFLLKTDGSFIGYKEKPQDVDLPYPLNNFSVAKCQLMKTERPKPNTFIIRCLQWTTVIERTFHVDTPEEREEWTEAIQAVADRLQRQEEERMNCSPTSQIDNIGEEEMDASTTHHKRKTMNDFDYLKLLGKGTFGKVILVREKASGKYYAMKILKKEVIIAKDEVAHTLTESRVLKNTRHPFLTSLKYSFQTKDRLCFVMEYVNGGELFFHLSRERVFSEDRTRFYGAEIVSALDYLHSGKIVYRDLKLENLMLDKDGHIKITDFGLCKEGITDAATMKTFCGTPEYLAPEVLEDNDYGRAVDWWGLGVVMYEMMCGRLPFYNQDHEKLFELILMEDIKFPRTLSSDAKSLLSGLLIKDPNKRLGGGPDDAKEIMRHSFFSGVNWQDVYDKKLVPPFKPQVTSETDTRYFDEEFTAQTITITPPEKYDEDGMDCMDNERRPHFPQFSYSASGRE

What is called IC50 is the concentration that gives 50% inhibition. Low readings indicate greater potency, high ones weaker potency. With `Cn1nccc1-c1ccc2c(c1)CN([C@H](CN)Cc1ccccc1)C2=O` [Example 55, 2-[(1S)-2-amino-1-benzyl-ethyl]-5-(1-methyl-1H-pyrazol-5-yl)isoindolin-1-one], the IC50 against Full length Akt1 was under 500 nM; on Full length Akt2, under 500 nM; against Full length Akt3, under 500 nM; against Full length PKA, over 5000 nM; in test [1] (setting [2]), under 500 nM.

`Cn1ncc(Cl)c1-c1ccc2c(c1)CN([C@H](CN)Cc1ccsc1)C2=O` [Example 68, 2-[(1S)-2-amino-1-(3-thienylmethyl)ethyl]-5-(4-chloro-1-methyl-1H-pyrazol-5-yl)isoindolin-1-one]: the IC50 at Full length Akt1 was under 500 nM; on Full length Akt2 it was under 500 nM; at Full length Akt3, under 500 nM; at Full length PKA, 500 to 5000 nM; in test [1] (setting [2]), under 500 nM.

For the compound `Cn1nccc1-c1ccc2c(c1)CN([C@H](CN)Cc1ccsc1)C2=O` [Example 81, 2-[(1S)-2-amino-1-(3-thienylmethyl)ethyl]-5-(1-methyl-1H-pyrazol-5-yl)isoindolin-1-one], the half-inhibitory concentration (IC50) against Full length Akt1 was under 500 nM; against Full length Akt2, under 500 nM; against Full length Akt3 it was under 500 nM; against Full length PKA, 500 to 5000 nM; in test [1] (setting [2]) it was under 500 nM.

For the compound `Cn1ncc(COCC2CC2)c1-c1ccc2c(c1)CN([C@H](CN)Cc1cccc(F)c1)C2=O` [Example 9, 2-[(1S)-2-amino-1-(3-fluorobenzyl)ethyl]-5-(4-cyclopropylmethoxymethyl-1-methyl-1H-pyrazol-5-yl)isoindolin-1-one], the IC50 against Full length Akt1 is under 500 nM; against Full length Akt2, under 500 nM; at Full length Akt3 it was under 500 nM; at Full length PKA it was over 5000 nM; in test [1] (setting [2]), under 500 nM.

As to `Cn1ncc(Cl)c1-c1ccc2c(c1)CN([C@H](CN)Cc1ccccc1F)C2=O` (stereo in doubt) [Example 60, 2-[2-amino-1-(2-fluorobenzyl)ethyl]-5-(4-chloro-1-methyl-1H-pyrazol-5-yl)isoindolin-1-one], the IC50 is under 500 nM at Full length Akt1; under 500 nM against Full length Akt2; under 500 nM on Full length Akt3; over 5000 nM against Full length PKA; under 500 nM in test [1] (setting [2]).

As to `Cn1nccc1-c1ccc2c(c1)CN([C@H](CN)Cc1cccnc1)C2=O` [Example 78, 2-[(1S)-2-amino-1-(pyridin-3-ylmethyl)ethyl]-5-(1-methyl-1H-pyrazol-5-yl)isoindolin-1-one], the IC50 is under 500 nM against Full length Akt1; under 500 nM on Full length Akt2; 500 to 5000 nM against Full length Akt3; over 5000 nM against Full length PKA; under 500 nM in test [1] (setting [2]).

In the case of `Cn1ncc(Cl)c1-c1ccc2c(c1)CN([C@H](CN)Cc1cccc(F)c1)C2=O` [Example 2, 2-[(1S)-2-amino-1-(3-fluorobenzyl)ethyl]-5-(4-chloro-1-methyl-1H-pyrazol-5-yl)isoindolin-1-one], the IC50 was under 500 nM against Full length Akt1; under 500 nM against Full length Akt2; under 500 nM against Full length Akt3; 500 to 5000 nM on Full length PKA; under 500 nM in test [1] (setting [2]).

In the case of `Cn1ncc(Cl)c1-c1ccc2c(c1)CN([C@H](CN)Cc1cc(F)cc(F)c1)C2=O` [Example 41, 2-[(1S)-2-amino-1-(3,5-difluorobenzyl)ethyl]-5-(4-chloro-1-methyl-1H-pyrazol-5-yl)isoindolin-1-one], the IC50 against Full length Akt1 is under 500 nM; against Full length Akt2, under 500 nM; on Full length Akt3, under 500 nM; at Full length PKA, 500 to 5000 nM; in test [1] (setting [2]), under 500 nM.

With `Cn1ncc(Cl)c1-c1ccc2c(c1)CN([C@H](CN)Cc1cccc(-c3ccncc3)c1)C2=O` [Example 72, 2-[(1S)-2-amino-1-(3-pyridin-4-ylbenzyl)ethyl]-5-(4-chloro-1-methyl-1H-pyrazol-5-yl)isoindolin-1-one], the IC50 against Full length Akt1 is over 5000 nM; against Full length Akt2, over 5000 nM; at Full length Akt3, over 5000 nM; against Full length PKA, over 5000 nM; in test [1] (setting [3]), over 1000 nM.

For the compound `CSCc1cnn(C)c1-c1ccc2c(c1)CN([C@H](CN)Cc1cc(F)cc(F)c1)C2=O` [Example 49, 2-[(1S)-2-amino-1-(3,5-difluorobenzyl)ethyl]-5-[4-(methylthio)methyl-1-methyl-1H-pyrazol-5-yl]isoindolin-1-one], the IC50 against Full length Akt1 was under 500 nM; on Full length Akt2, 500 to 5000 nM; on Full length Akt3, under 500 nM; at Full length PKA, over 5000 nM; in test [1] (setting [2]), 500 to 5000 nM.

Turning to `Cn1ncc(Cl)c1-c1ccc2c(c1)CN([C@H](CN)Cc1cccnc1)C2=O` [Example 65, 2-[(1S)-2-amino-1-(pyridin-3-ylmethyl)ethyl]-5-(4-chloro-1-methyl-1H-pyrazol-5-yl)isoindolin-1-one], the IC50 was under 500 nM against Full length Akt1; under 500 nM at Full length Akt2; under 500 nM on Full length Akt3; over 5000 nM against Full length PKA; under 500 nM in test [1] (setting [2]).

`Cn1nccc1-c1ccc2c(c1)CN(C(CN)c1cccc(F)c1)C2=O` (centres unmarked) [Example 117, 2-[2-amino-1-(3-fluorophenyl)ethyl]-5-(1-methyl-1H-pyrazol-5-yl)isoindolin-1-one]: the IC50 at Full length Akt1 was under 500 nM; on Full length Akt2 it was under 500 nM; against Full length Akt3, 500 to 5000 nM; against Full length PKA, 500 to 5000 nM; in test [1] (setting [2]) it was under 500 nM.

On to `Cc1cnn(C)c1-c1ccc2c(c1)CN([C@H](CN)Cc1cc(F)cc(F)c1)C2=O` [Example 42, 2-[(1S)-2-amino-1-(3,5-difluorobenzyl)ethyl]-5-(4-methyl-1-methyl-1H-pyrazol-5-yl)isoindolin-1-one], for which the IC50 is under 500 nM against Full length Akt1; under 500 nM at Full length Akt2; under 500 nM against Full length Akt3; 500 to 5000 nM against Full length PKA; under 500 nM in test [1] (setting [2]).

In the case of `Cn1ncc(COCC2CC2)c1-c1ccc2c(c1)CN([C@H](CN)Cc1cc(F)cc(F)c1)C2=O` [Example 48, 2-[(1S)-2-amino-1-(3,5-difluorobenzyl)ethyl]-5-[4-(cyclopropylmethoxymethyl)-1-methyl-1H-pyrazol-5-yl]isoindolin-1-one], the IC50 was under 500 nM on Full length Akt1; under 500 nM against Full length Akt2; under 500 nM on Full length Akt3; 500 to 5000 nM against Full length PKA; under 500 nM in test [1] (setting [2]).

For the compound `Cn1nccc1-c1ccc2c(c1)CN([C@H](CN)Cc1cccc(-c3cccnc3)c1)C2=O` [Example 86, 2-[(1S)-2-amino-1-(3-pyridin-3-ylbenzyl)ethyl]-5-(1-methyl-1H-pyrazol-5-yl)isoindolin-1-one], the IC50 was 500 to 5000 nM against Full length Akt1; over 5000 nM against Full length Akt2; over 5000 nM at Full length Akt3; over 5000 nM on Full length PKA; over 1000 nM in test [1] (setting [3]).

Consider `CCCOCc1cnn(C)c1-c1cc2c(cn1)C(=O)N([C@H](CN)Cc1cc(F)cc(F)c1)C2` [Example 107, 2-[(1S)-2-amino-1-(3,5-difluoro-benzyl)ethyl]-6-[4-(1-propoxy-methyl)-1-methyl-1H-pyrazol-5-yl]-1,2-dihydro-3H-pyrrolo[3,4-c]pyridin-3-one], for which the IC50 at Full length Akt1 is under 500 nM; at Full length Akt2 it was under 500 nM; against Full length Akt3, under 500 nM; against Full length PKA, over 5000 nM; in test [1] (setting [2]), under 500 nM.

As for `Cn1ncc(Br)c1-c1cnc2c(c1)CN([C@H](CN)Cc1cccc(F)c1)C2=O` [Example 91, 6-[(1S)-2-amino-1-(3-fluorobenzyl)ethyl]-3-(4-bromo-1-methyl-1H-pyrazol-5-yl)-5,6-dihydro-7H-pyrrolo[3,4-b]pyridin-7-one], the IC50 against Full length Akt1 is under 500 nM; on Full length Akt2 it was under 500 nM; against Full length Akt3, under 500 nM; at Full length PKA it was over 5000 nM; in test [1] (setting [2]), under 500 nM.

`Cc1cnn(C)c1-c1cc2c(cn1)C(=O)N([C@H](CN)Cc1cc(F)cc(F)c1)C2` [Example 103, 2-[(1S)-2-amino-1-(3,5-difluoro-benzyl)ethyl]-6-(4-methyl-1-methyl-1H-pyrazol-5-yl)-1,2-dihydro-3H-pyrrolo[3,4-c]pyridin-3-one]: the IC50 at Full length Akt1 was under 500 nM; against Full length Akt2, under 500 nM; at Full length Akt3, under 500 nM; against Full length PKA, 500 to 5000 nM; in test [1] (setting [2]) it was under 500 nM.

For the compound `CCOCc1cnn(C)c1-c1ccc2c(c1)CN([C@H](CN)Cc1cccc(F)c1)C2=O` [Example 5, 2-[(1S)-2-amino-1-(3-fluorobenzyl)ethyl]-5-(4-ethoxymethyl-1-methyl-1H-pyrazol-5-yl)isoindolin-1-one], the IC50 at Full length Akt1 is under 500 nM; against Full length Akt2 it was under 500 nM; on Full length Akt3, under 500 nM; against Full length PKA it was over 5000 nM; in test [1] (setting [2]), under 500 nM.
